Assay results published in ChEMBL document CHEMBL1201862, “PubChem BioAssay data set” (2004).
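Interpolation was linear, between the two tested concentrations surrounding the appropriate level; five concentrations were tested over 48 hours in 96-well plates. Abbreviation: GI50, concentration required for 50% inhibition of growth.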 The source made the active and inactive calls. Cut-off read from the data, not from the text of the source: active = GI50 up to about 1.1 µM and inactive = higher.

Columns and labels:
Assay in all cases: NCI-60 cell line screen, 48 h
[1] = system: A498
[2] = system: A549
[3] = system: BT-549
[4] = system: COLO 205
[5] = system: DU-145
[6] = system: HCC 2998
[7] = system: HCT-15
[8] = system: Hs-578T
[9] = system: KM12
[10] = system: MDA-MB-231
[11] = system: MOLT-4
[12] = system: NCI-H23
[13] = system: NCI/ADR-RES
[14] = system: OVCAR-8
[15] = system: RPMI-8226
[16] = system: SF-539
[17] = system: SK-MEL-28
[18] = system: SW-620
[19] = system: UACC-62
[20] = system: UO-31

SMILES | GI50 [1] | GI50 [2] | GI50 [3] | GI50 [4] | GI50 [5] | GI50 [6] | GI50 [7] [µM] | GI50 [8] | GI50 [9] | GI50 [10] | GI50 [11] | GI50 [12] | GI50 [13] | GI50 [14] | GI50 [15] | GI50 [16] | GI50 [17] | GI50 [18] | GI50 [19] | GI50 [20]
Clc1ccc2c(NCCCCN3OC3c3ccccc3)ccnc2c1 (stereo not given) | 8.36 µM (inactive) | 5.62 µM (inactive) | 13.4 µM (inactive) | 2.86 µM (inactive) | 10.4 µM (inactive) | 2.89 µM (inactive) | 10.4 | 14.6 µM (inactive) | 7.5 µM (inactive) | 2.27 µM (inactive) | 2.15 µM (inactive) | 15.8 µM (inactive) | 18.5 µM (inactive) | 3.71 µM (inactive) | 2.92 µM (inactive) | 1.98 µM (inactive) | 3.64 µM (inactive) | 5.21 µM (inactive) | 14.1 µM (inactive) | 14.8 µM (inactive)
COc1ccc(C(C)NNC(=O)c2ccncc2)cc1F (stereo not given) | > 100 µM (inactive) | > 100 µM (inactive) | > 100 µM (inactive) | > 100 µM (inactive) | > 100 µM (inactive) | > 100 µM (inactive) | > 100 | > 100 µM (inactive) | > 100 µM (inactive) | > 100 µM (inactive) | > 100 µM (inactive) | > 100 µM (inactive) | > 100 µM (inactive) | > 100 µM (inactive) | > 100 µM (inactive) | > 100 µM (inactive) | > 100 µM (inactive) | > 100 µM (inactive) | > 100 µM (inactive) | > 100 µM (inactive)
CC1(C)N=C(N)N=C(N)N1c1cccc(CSc2ccccc2)c1 | > 100 µM (inactive) | 0.0301 µM (active) | 15.9 µM (inactive) | 0.794 µM (active) | 0.592 µM (active) | 73.1 µM (inactive) | 50.4 | 2.83 µM (inactive) | 0.718 µM (active) | > 100 µM (inactive) | 0.141 µM (active) | 0.619 µM (active) | > 100 µM (inactive) | 3.16 µM (inactive) | 0.944 µM (active) | 0.461 µM (active) | 0.805 µM (active) | 7.59 µM (inactive) | 0.192 µM (active) | > 100 µM (inactive)
CN(C)CC1CCCCCC(Br)C1=O (stereo not given) | 54.8 µM (inactive) | > 70.8 µM (inactive) | 11.7 µM (inactive) | 11.5 µM (inactive) | 12.1 µM (inactive) | 4.57 µM (inactive) | 9.23 | 17.1 µM (inactive) | 18.4 µM (inactive) | 16.1 µM (inactive) | 0.946 µM (active) | 13.4 µM (inactive) | 13.9 µM (inactive) | 13 µM (inactive) | 0.61 µM (active) | 17.3 µM (inactive) | 15.9 µM (inactive) | 3.71 µM (inactive) | 18.7 µM (inactive) | 13.6 µM (inactive)
CCCCCCCCCCCC[C@H](O)[C@H]1CC[C@H]([C@H](O)CCCC[C@H](O)CCCCC[C@@H](O)CC2=C[C@H](C)OC2=O)O1 | 4.58 µM (inactive) | 2.34 µM (inactive) | 0.0026 µM (active) | 4.21 µM (inactive) | 9.42 µM (inactive) | 17.4 µM (inactive) | 5.56 | 5.43 µM (inactive) | 3.51 µM (inactive) | 1.88 µM (inactive) | 2.87 µM (inactive) | 0.00415 µM (active) | 1.61 µM (inactive) | 2.26 µM (inactive) | > 10 µM (inactive) | 15.3 µM (inactive) | 4.51 µM (inactive) | 2.75 µM (inactive) | 1.19 µM (inactive) | 1.5 µM (inactive)
CCOC(=O)C1=CN(C(=O)c2ccccc2)CCC1Cc1ccccc1 (stereo not given) | 7.87 µM (inactive) | 29.2 µM (inactive) | 25.8 µM (inactive) | 18.9 µM (inactive) | 40.9 µM (inactive) | 17.6 µM (inactive) | 21.3 | 20.5 µM (inactive) | 26.1 µM (inactive) | 17.7 µM (inactive) | 13.5 µM (inactive) | 29 µM (inactive) | 20 µM (inactive) | 24.4 µM (inactive) | 13.5 µM (inactive) | 21.5 µM (inactive) | 22.9 µM (inactive) | 26 µM (inactive) | 13.7 µM (inactive) | 33 µM (inactive)
COc1cc2nc(-c3cccs3)nc(Nc3ccccc3C(=O)NN)c2cc1OC | > 100 µM (inactive) | > 100 µM (inactive) | > 100 µM (inactive) | 67.3 µM (inactive) | > 100 µM (inactive) | > 100 µM (inactive) | > 100 | > 100 µM (inactive) | > 100 µM (inactive) | > 100 µM (inactive) | > 100 µM (inactive) | > 100 µM (inactive) | > 100 µM (inactive) | > 100 µM (inactive) | > 100 µM (inactive) | > 100 µM (inactive) | 99.8 µM (inactive) | > 100 µM (inactive) | > 100 µM (inactive) | > 100 µM (inactive)
